Type in all cases: cell-based
The subject of one assay is Salmonella. The experiment in a line: treatment of Salmonella-contaminated tomatoes. The settings on record: 150 ppm. On the procedure: The microbicidal efficacy of the microbicidal disinfecting composition of Example 1 (composition A) was further tested and proven effective against Salmonella on contaminated tomatoes. When Salmonella-contaminated tomatoes were treated with 0.1% solution of composition A, the viable bacterial population was reduced by 2.31 log10 CFU as compared with 2.11 log10 CFU with 150 ppm of hypochlorite.

For the next assay, the system named is Staphylococcus aureus. Put plainly: modified detergent and germicidal sanitizer test of the A.O.A.C. Conditions: 50 ppm hypochlorite control. On the procedure:
(§1) The microbicidal efficacy of the microbicidal disinfecting compositions of Examples 1-3 (compositions A-C) were evaluated with 50 ppm of hypochlorite as a control against Staphylococcus aureus and Escherichia coli by the modified detergent and germicidal sanitizer test of the A.O.A.C. (Lopes, 1986).

For another assay, the system named is Escherichia coli. Described as above. The settings on record: 50 ppm hypochlorite control. On the procedure:
as §1

Bounds are passed on as bounds.

Consider 1 compound from US9538763B2, “Cleaning, disinfecting and microbicidal compositions” (priority 2009, dated 2017).

As for `OCl` [Hypochlorite, hypochlorite], in the assay with Salmonella, the “reduction of viable bacterial population” value came to 2.11 log10 CFU. The “% Kill Staph. aureus” value in the assay on Staphylococcus aureus is given as greater than 99.999%. For the same compound, in the assay on Escherichia coli, the “% Kill E. coli” value was greater than 99.999%.
